Source: patent US7361743B2 (Pfizer Inc, priority 2004, dated 2008)
Values after ≈ are worked out from the molar mass of the structure shown. Read-outs that look alike come from different tables or passages of the source.

How the values were obtained:
[1] = tested on: Enterococcus faecalis; experiment: Susceptibility testing, NCCLS microdilution MIC; format: cell-based; conditions: Enterococcus faecalis, Example A′
[2] = tested on: Haemophilus influenzae; experiment: Susceptibility testing, NCCLS microdilution MIC; format: cell-based; conditions: Haemophilus influenzae, Example A′
[3] = tested on: Bacteroides fragilis; experiment: Susceptibility testing, NCCLS microdilution MIC (anaerobe); format: cell-based; conditions: Bacteroides fragilis, ATCC25285; B. fragilis ATCC 25285; Example A′; read-out: MIC B. fragilis
[4] = tested on: Staphylococcus aureus; experiment: Susceptibility testing, NCCLS microdilution MIC; format: cell-based
[5] = tested on: E. coli transcription/translation (bacterial protein synthesis, E. coli S30 extract); experiment: In vitro inhibition of E. coli transcription and translation assay (TT), cell-free; format: biochemical; conditions: for IC50: cell-free E. coli S30 extract; for In vitro inhibition of E. coli transcription and translation compared with literature azepine compound VIII(18): cell-free TT assay, comparison in words
Method: Inhibition of bacterial protein synthesis was assayed in a cell-free E. coli transcription/translation assay.
Stock solutions of compounds were prepared at 10 mg/mL in DMSO. The assay contained less or equal to 1% (v/v) final concentration of DMSO. Three-fold serial dilutions were prepared in assay buffer at 6-fold final concentration in 96 well microtiter plate.
All vials, tubes and microtiter plates are RNase free. The Mix was freshly prepared with 10 μl H2O, 10 μl AA-M, 10 μl AA-L, 80 μl Premix and 50 μl ES30 extract. The assay was performed in a 96-well plate. Five microliters of compounds at various concentrations (6-fold final assay concentration) were preincubated with 20 μl of the mix for 5 min at room temperature. The reaction started with addition of 5 μl of plasmid (˜0.1 mg/mL pGEMBGAL), and kept at 37° C. for 1 h followed by the addition of 150 μl of OPNG solution (4 mg/mL OPNG in 0.1M NaPi, pH 7.5, 1 mM MgCl2 and 2 mM DTT). 150 μl of the reaction was transferred to a ½-area plate and increase in absorption at OD420 nm was monitored for 10 min using a Spectramax plate reader (Molecular Devices). The slope of absorption change over time is corresponding to the pathway activity.
The E. coli S30 Extract for circular DNA kit was purchased from Promega. Original plasmid pGEMBGAL was obtained from Promega and amplified via Maxiprep in house. 2-Nitrophenyl β-D-galactopyranoside was obtained from Sigma. Clindamycin HCl (USP) was purchased from Spectrum.
The inhibition are expressed as percent of control activity (without inhibitor) which is calculated according to equation (1): Inhibition %=(compound slope-blank slope)/(control slope-blank slope)*100 (1)
All IC50s were determined by fitting the experimental data to equation (2) using software DeltaGraph (DeltaPoint Inc.): Y=Y0/(1+(X/IC50)[…])+c (2)
Where Y: activity at given inhibitor concentration; Y0: activity without inhibitor; X: inhibitor concentration; d: slope; c: constant.
Lincosamides inhibit bacterial growth through binding to the bacterial 50S ribosome, thus inhibiting peptide bond formation. The transcription/translation assay provides a screening tool to measure inhibition of bacterial protein synthesis pathway at the target level without the complication of differences in membrane permeability.

[6] = ATCC29212, E. faecalis ATCC 29212, read-out: MIC E. faecalis
[7] = ATCC31517, H. influenzae ATCC 31517, read-out: MIC H. influenzae
[8] = ATCC25923, S. aureus ATCC 25923, Example A′, read-out: MIC S. aureus

SMILES | MIC [1, 6] [µg/mL] | MIC [2, 7] [µg/mL] | MIC [3] [µg/mL] | MIC [4, 8] [µg/mL] | IC50 [5] [nM] | In vitro inhibition of E. coli transcription and translation compared with literature azepine compound VIII(18) [5] | MIC ([1]; strain not stated, 24 h at 35° C., read-out: MIC against Enterococcus faecalis) [µg/mL] | MIC ([2]; strain not stated, 24 h at 35° C., read-out: MIC against Haemophilus influenzae) [µg/mL] | MIC ([4]; Example A′, strain not stated, 24 h at 35° C., read-out: MIC against Staphylococcus aureus) [µg/mL]
CS[C@H]1O[C@H]([C@H](NC(=O)[C@@H]2CC[C@H](CCCC(F)F)CCN2)[C@H](C)Cl)[C@H](O)[C@H](O)[C@H]1O [Example 11′, 5-(4,4-Difluoro-butyl)-azepane-2-carboxylic acid [2-chloro-1-(3,4,5-trihydroxy-6-methylsulfanyl-tetrahydro-pyran-2-yl)-propyl]-amide] | 0.06 (≈ 0.123 µM) | 0.25 (≈ 0.511 µM) | 1 (≈ 2.04 µM) | 0.06 (≈ 0.123 µM) | 250 | markedly superior |  |  | 
CS[C@H]1O[C@H]([C@H](NC(=O)[C@@H]2CC[C@H](CCC(F)F)CCN2)[C@H](C)Cl)[C@H](O)[C@H](O)[C@H]1O [Example 10′, 5-(3,3-Difluoro-propyl)-azepane-2-carboxylic acid [2-chloro-1-(3,4,5-trihydroxy-6-methylsulfanyl-tetrahydro-pyran-2-yl)-propyl]-amide] | 0.125 (≈ 0.263 µM) | 0.5 (≈ 1.05 µM) | 1 (≈ 2.11 µM) | 0.06 (≈ 0.126 µM) | 530 | markedly superior |  |  | 
COCCCC[C@@H]1CCN[C@H](C(=O)N[C@@H]([C@H]2O[C@H](SC)[C@H](O)[C@@H](O)[C@H]2O)[C@H](C)Cl)CC1 [Example 12′, 5-(4-Methoxy-butyl)-azepane-2-carboxylic acid [2-chloro-1-(3,4,5-trihydroxy-6-methylsulfanyl-tetrahydro-pyran-2-yl)-propyl]-amide] | 0.5 (≈ 1.04 µM) | 0.5 (≈ 1.04 µM) | 2 (≈ 4.14 µM) | 0.06 (≈ 0.124 µM) | 290 | markedly superior |  |  | 
CS[C@H]1O[C@H]([C@H](NC(=O)[C@@H]2CCCCCN2)[C@H](C)Cl)[C@H](O)[C@H](O)[C@H]1O [VIII(18), Azepane-2-carboxylic acid [2-chloro-1-(3,4,5-trihydroxy-6-methylsulfanyl-tetrahydro-pyran-2-yl)-propyl]-amide, reference compound] | 8 (≈ 20.2 µM) | > 8 | 2 (≈ 5.04 µM) | 4 (≈ 10.1 µM) | 21000 |  | 8 (≈ 20.2 µM) | > 8 | 4 (≈ 10.1 µM)
CCCc1cn(CCC[C@@H]2CCN[C@H](C(=O)N[C@@H]([C@H]3O[C@H](SC)[C@H](O)[C@@H](O)[C@H]3O)[C@H](C)Cl)CC2)nn1 [Example 17′, 5-[3-(4-Propyl-[1,2,3]triazol-1-yl)-propyl]-azepane-2-carboxylic acid [2-chloro-1-(3,4,5-trihydroxy-6-methylsulfanyl-tetrahydro-pyran-2-yl)-propyl]-amide] | 8 (≈ 14.6 µM) | 4 (≈ 7.3 µM) | > 8 | 1 (≈ 1.82 µM) | 750 | markedly superior |  |  | 
CS[C@H]1O[C@H]([C@H](NC(=O)C2CC[C@H](CCCCO)CCN2)[C@H](C)Cl)[C@H](O)[C@H](O)[C@H]1O (stereo in doubt) [Example 1′, 5-(4-Hydroxy-butyl)-azepane-2-carboxylic acid [2-chloro-1-(3,4,5-trihydroxy-6-methylsulfanyl-tetrahydro-pyran-2-yl)-propyl]-amide] | 1 (≈ 2.13 µM) | 0.5 (≈ 1.07 µM) | 8 (≈ 17.1 µM) | 0.25 (≈ 0.533 µM) | 530 | markedly superior |  |  | 
CS[C@H]1O[C@H]([C@H](NC(=O)C2CC[C@H](CCCCC#N)CCN2)[C@H](C)Cl)[C@H](O)[C@H](O)[C@H]1O (stereo in doubt) [Example 8′, 5-(4-Cyano-butyl)-azepane-2-carboxylic acid [2-chloro-1-(3,4,5-trihydroxy-6-methylsulfanyl-tetrahydro-pyran-2-yl)-propyl]-amide] | 0.06 (≈ 0.126 µM) | 0.5 (≈ 1.05 µM) | 1 (≈ 2.09 µM) | 0.125 (≈ 0.261 µM) | 190 | markedly superior |  |  | 
CS[C@H]1O[C@H]([C@H](NC(=O)[C@@H]2CC[C@H](CCCn3cc(C(C)C)nn3)CCN2)[C@H](C)Cl)[C@H](O)[C@H](O)[C@H]1O [Example 18′, 5-[3-(4-(2-Propyl)-[1,2,3]triazol-1-yl)-propyl]-azepane-2-carboxylic acid [2-chloro-1-(3,4,5-trihydroxy-6-methylsulfanyl-tetrahydro-pyran-2-yl)-propyl]-amide] | 4 (≈ 7.3 µM) | 4 (≈ 7.3 µM) | > 8 | 1 (≈ 1.82 µM) | 440 | markedly superior |  |  | 
CS[C@H]1O[C@H]([C@H](NC(=O)[C@@H]2CC[C@H](CCCCOc3cccnc3)CCN2)[C@H](C)Cl)[C@H](O)[C@H](O)[C@H]1O [Example 14′, 5-[4-(Pyridin-3-yloxy)-butyl]-azepane-2-carboxylic acid [2-chloro-1-(3,4,5-trihydroxy-6-methylsulfanyl-tetrahydro-pyran-2-yl)-propyl]-amide] | 0.5 (≈ 0.916 µM) | 1 (≈ 1.83 µM) | 8 (≈ 14.6 µM) | 0.125 (≈ 0.229 µM) | 200 | markedly superior |  |  | 
CS[C@H]1O[C@H]([C@H](NC(=O)C2CC[C@H](CCCn3ccnn3)CCN2)[C@H](C)Cl)[C@H](O)[C@H](O)[C@H]1O (stereo in doubt) [Example 9′, 5-(3-[1,2,3]Triazol-1-yl-propyl)-azepane-2-carboxylic acid [2-chloro-1-(3,4,5-trihydroxy-6-methylsulfanyl-tetrahydro-pyran-2-yl)-propyl]-amide] | 4 (≈ 7.9 µM) | 2 (≈ 3.95 µM) | > 8 | 0.5 (≈ 0.988 µM) | 280 | markedly superior |  |  | 
CS[C@H]1O[C@H]([C@H](NC(=O)[C@@H]2CC[C@H](CCCOc3cccnc3)CCN2)[C@H](C)Cl)[C@H](O)[C@H](O)[C@H]1O [Example 15′, 5-[3-(Pyridin-3-yloxy)-propyl]-azepane-2-carboxylic acid [2-chloro-1-(3,4,5-trihydroxy-6-methylsulfanyl-tetrahydro-pyran-2-yl)-propyl]-amide] | 0.5 (≈ 0.94 µM) | 2 (≈ 3.76 µM) | > 8 | 0.125 (≈ 0.235 µM) | 1100 | markedly superior |  |  | 
COCc1cn(CCC[C@@H]2CCN[C@H](C(=O)N[C@@H]([C@H]3O[C@H](SC)[C@H](O)[C@@H](O)[C@H]3O)[C@H](C)Cl)CC2)nn1 [Example 16′, 5-[3-(4-Methoxymethyl-[1,2,3]triazol-1-yl)-propyl]-azepane-2-carboxylic acid [2-chloro-1-(3,4,5-trihydroxy-6-methylsulfanyl-tetrahydro-pyran-2-yl)-propyl]-amide] | > 8 | 2 (≈ 3.64 µM) | > 8 | 2 (≈ 3.64 µM) | 440 | markedly superior |  |  | 
